This note sets out measurements from ChEMBL document CHEMBL1201862, “PubChem BioAssay data set” (2004).

Test systems include SK-MEL-28; KM12; M14; A498; IGROV-1; MCF7; LOX IMVI; SF-539; SNB-19; HL-60; RXF 393; Hs-578T; PC-3; MDA-N; NCI/ADR-RES; MDA-MB-435; SR; COLO 205; DU-145; T47D.
Assay in all cases: growth of human tumour cells (NCI), 48 h

Each structure is given as a SMILES string.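 Protocol summary: plate cells (96-well), add compound at 5 concentrations, incubate 48 h, interpolate endpoints linearly. At the GI50, growth is halved.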 The source made the active and inactive calls. Rule as the data show it: active = GI50 up to about 1.1 µM and inactive = higher.

Consider `O=C1C(F)=CC(COC(c2ccccc2)(c2ccccc2)c2ccccc2)OC1n1cc(F)c(=O)[nH]c1=O` (stereo not given), for which the GI50 was 1.62 µM (inactive) with SK-MEL-28; 1.91 µM (inactive) in the test on KM12; 1.83 µM (inactive) in the test with M14; 8.79 µM (inactive) with A498; 1.46 µM (inactive) in the test with IGROV-1; 2.07 µM (inactive) with MCF7. Also, the GI50 in the test on LOX IMVI is 0.533 µM (active); in the test on SF-539, 1.94 µM (inactive); with SNB-19, 5.09 µM (inactive); in the test with HL-60, 0.592 µM (active); in the test on RXF 393 it was 1.96 µM (inactive); with Hs-578T, 4.24 µM (inactive). Also, the GI50 in the test with PC-3 was 1.71 µM (inactive); in the test with MDA-N, 1.11 µM (active); in the test on NCI/ADR-RES, 2.04 µM (inactive); in the test on MDA-MB-435 it was 0.746 µM (active); in the test on SR, 6.18 µM (inactive).
For the molecule `Cc1ccc(NC(=O)C(=O)C(C#N)c2ccccc2C)cc1C` (stereo not given), the GI50 is > 100 µM (inactive) with SK-MEL-28; > 100 µM (inactive) in the test with KM12; > 100 µM (inactive) with M14; > 100 µM (inactive) in the test on A498; > 100 µM (inactive) with IGROV-1; > 41.2 µM (inactive) in the test on LOX IMVI. Also, the GI50 is > 100 µM (inactive) with SF-539; > 100 µM (inactive) in the test with SNB-19; > 54.1 µM (inactive) in the test with HL-60; > 45.5 µM (inactive) with COLO 205; > 100 µM (inactive) in the test on RXF 393; > 100 µM (inactive) in the test with SR.
Turning to `O=C1C[C@H](c2ccc(O)c(O)c2)Oc2cc(O)cc(O)c21`, the GI50 in the test with SK-MEL-28 was 90.6 µM (inactive); with KM12, 78.2 µM (inactive); in the test on M14, > 100 µM (inactive); in the test with A498 it was > 100 µM (inactive); in the test with IGROV-1, > 100 µM (inactive); in the test with LOX IMVI it was > 100 µM (inactive). Also, the GI50 in the test with SF-539 was > 100 µM (inactive); in the test on SNB-19, > 100 µM (inactive); in the test with HL-60, 30.6 µM (inactive); in the test with COLO 205, > 100 µM (inactive); in the test with RXF 393 it was > 100 µM (inactive); in the test on SR, 27 µM (inactive).
As for `CCOC(=O)C1=CN=C2C(=O)N(c3ccccc3)N(C)C2(C)C1=N` (stereo not given), the GI50 in the test on SK-MEL-28, with KM12, with M14, in the test with A498, with IGROV-1 and in the test with MCF7 was > 100 µM (inactive) each time. For the same molecule, the GI50 in the test on LOX IMVI, in the test with SF-539, in the test with SNB-19, with HL-60, in the test on COLO 205 and with RXF 393 was > 100 µM (inactive) each time. Besides, the GI50 in the test with PC-3, with MDA-N, in the test with NCI/ADR-RES, with DU-145 and in the test with MDA-MB-435 was > 100 µM (inactive) throughout.
Take `COc1cc(S(=O)(=O)Nc2ccc(-c3csc(/N=C\c4cccc(Oc5ccccc5)c4)n3)cc2)ccc1Cl`: the GI50 was 36.1 µM (inactive) in the test with SK-MEL-28; 31.8 µM (inactive) in the test with KM12; 17 µM (inactive) with M14; 28.8 µM (inactive) with IGROV-1; 5.2 µM (inactive) in the test on MCF7; 19.3 µM (inactive) in the test on LOX IMVI. In addition, the GI50 is 33.9 µM (inactive) in the test with SF-539; 8.85 µM (inactive) with SNB-19; 23.2 µM (inactive) in the test with HL-60; 16.2 µM (inactive) in the test on T47D; 34.7 µM (inactive) in the test with COLO 205; 20.1 µM (inactive) in the test on RXF 393. For the same molecule, the GI50 with Hs-578T is 60.4 µM (inactive); in the test with PC-3, 36.7 µM (inactive); with NCI/ADR-RES it was 96.4 µM (inactive); with DU-145, 25.5 µM (inactive); in the test with MDA-MB-435, 30.8 µM (inactive); with SR, 21.1 µM (inactive).
`CC(=O)C1=C(C)NC2C=CC=CN12` (stereo not given): the GI50 with SK-MEL-28, with KM12, with M14, in the test with A498, in the test on IGROV-1 and in the test with LOX IMVI was > 100 µM (inactive) each time. In addition, the GI50 in the test on SF-539, in the test with SNB-19, in the test with HL-60, in the test on COLO 205, with RXF 393 and with SR was > 100 µM (inactive) each time.
As to `N#CC(/C(CCCC(=O)Nc1cccc([N+](=O)[O-])c1)=N/NC(=O)c1cc2ccccc2cc1O)c1ccccc1` (stereo not given), the GI50 in the test on SK-MEL-28 was > 100 µM (inactive); with KM12, 62.2 µM (inactive); in the test on M14 it was 16.3 µM (inactive); in the test on A498, 35.3 µM (inactive); with IGROV-1, 17.1 µM (inactive); with LOX IMVI, 16.4 µM (inactive). Besides, the GI50 was 27.4 µM (inactive) in the test with SF-539; 28.8 µM (inactive) with SNB-19; 4.79 µM (inactive) in the test with HL-60; 23.6 µM (inactive) in the test on COLO 205; 5.07 µM (inactive) in the test on RXF 393; 26.8 µM (inactive) in the test with SR.
As for `CC(=O)Oc1ccc(O)c2c1CCCC2`, the GI50 in the test with SK-MEL-28 is 66.4 µM (inactive); in the test on KM12, > 100 µM (inactive); with M14 it was 24.2 µM (inactive); in the test on A498, > 31.6 µM (inactive); in the test with IGROV-1, > 100 µM (inactive); in the test on LOX IMVI, 19.4 µM (inactive). The GI50 in the test with SF-539 is > 100 µM (inactive); in the test with SNB-19, > 100 µM (inactive); in the test with HL-60, 3.66 µM (inactive); in the test on COLO 205 it was 22.4 µM (inactive); in the test with RXF 393 it was > 42.8 µM (inactive); in the test on SR it was 2.82 µM (inactive).
Consider `O=S1(=O)N=C(NCc2c[nH]c3ccccc23)N(c2ccccc2)c2ccncc21`, for which the GI50 in the test on SK-MEL-28, with KM12, in the test with M14, in the test on A498, with MCF7 and in the test with LOX IMVI was > 100 µM (inactive) throughout. The GI50 with SF-539 is 66.4 µM (inactive); in the test on SNB-19, 34.9 µM (inactive); with HL-60 it was > 100 µM (inactive); in the test with T47D, > 100 µM (inactive); in the test with COLO 205, > 100 µM (inactive); in the test on RXF 393, > 100 µM (inactive). Further, the GI50 is 31.7 µM (inactive) in the test with Hs-578T; > 100 µM (inactive) in the test with PC-3; > 100 µM (inactive) in the test with NCI/ADR-RES; > 100 µM (inactive) in the test on DU-145; > 100 µM (inactive) in the test on MDA-MB-435.
For `CNC(=S)/N=c1/sc(NC)nc2sc3c(c12)CCCC3`, the GI50 in the test on SK-MEL-28, in the test with KM12, in the test on A498, in the test with IGROV-1, with MCF7 and in the test on LOX IMVI was > 100 µM (inactive) throughout. Moreover, the GI50 in the test on SNB-19 is 35.9 µM (inactive); in the test with HL-60, > 100 µM (inactive); with COLO 205 it was > 100 µM (inactive); in the test with RXF 393, 22.5 µM (inactive); with Hs-578T it was 29 µM (inactive); in the test on PC-3, > 100 µM (inactive). Also, the GI50 in the test with MDA-N, in the test on DU-145, with MDA-MB-435 and in the test with SR was > 100 µM (inactive) in each case.
Take `COc1cc2c(cc1OC)C(C(CBr)CBr)N(C1CCCC1)CC2` (stereo not given): the GI50 with SK-MEL-28, in the test on KM12, with M14, in the test on A498, in the test on IGROV-1 and with LOX IMVI was > 100 µM (inactive) in each case. The GI50 in the test with SF-539, in the test with SNB-19, with HL-60, in the test with COLO 205, with RXF 393 and with SR was > 100 µM (inactive) in each case.
Turning to `Nc1nc(Cl)cc(OCC2(CO)CC=CC2)n1`, the GI50 with SK-MEL-28 is > 100 µM (inactive); with A498 it was 90.6 µM (inactive); with IGROV-1, > 100 µM (inactive); in the test on MCF7, > 100 µM (inactive); with LOX IMVI, > 100 µM (inactive); with SF-539, > 100 µM (inactive). Besides, the GI50 in the test with SNB-19, in the test on HL-60, in the test on RXF 393, with Hs-578T, in the test with PC-3 and in the test on MDA-N was > 100 µM (inactive) throughout. Also, the GI50 in the test on NCI/ADR-RES, in the test with DU-145, with MDA-MB-435 and in the test on SR was > 100 µM (inactive) in each case.
For the molecule `CCOC(=O)C1C=C1C(C)(C)O` (stereo not given), the GI50 with SK-MEL-28, in the test on KM12, with M14, with A498, with IGROV-1 and with MCF7 was > 10 µM (inactive) each time. For the same molecule, the GI50 was > 10 µM (inactive) in the test on LOX IMVI; > 10 µM (inactive) in the test on SF-539; > 10 µM (inactive) with SNB-19; > 10 µM (inactive) in the test with HL-60; 7.24 µM (inactive) in the test on T47D; > 10 µM (inactive) in the test with RXF 393. Also, the GI50 in the test with Hs-578T, in the test with PC-3, with DU-145, with MDA-MB-435 and with SR was > 10 µM (inactive) each time.
